# Tests used:
# [1] = system: SHP-1 substrate pLck-pY394 in Jurkat T cells; assay: induction of pLck-pY394 in Jurkat cells (SDS-PAGE/Western blotting); assay type: cell-based, human
# Method: (§1) Jurkat cells in culture medium (3×10^6 cells/ml, 1 ml/tube) were treated with agents for designated times at room temperature. After brief centrifuging in a microfuge (4,000 rpm, 2 min), the cell pellet was lysed on ice for 30 min in 100 μl of cold lysis buffer (1% NP40, 50 mM Tris, pH 7.4, 150 mM NaCl, 20 mM NaF, 0.2 mM Na3VO4 and 1 mM Na3MO4) containing a cocktail of proteinase inhibitors (Sigma, 1 tablet/10 ml). The lysates were cleared by centrifuging (14,000 rpm, 10 min) in a microfuge at 4° C. to remove insoluble parts, mixed with equal volume of 2×SDS-PAGE sample buffer, boiled for 5 min and analyzed (˜3×10^5 cells/well) by SDS-PAGE/Western blotting. Relative intensities of phosphotyrosine bands were quantified through densitometry analysis.
# as §1, with “blotting as described previously (23, 24).” for “blotting.”
# as §1, with “blotting as described previously (17, 18).” for “blotting.”
# [2] = target: T1, recombinant SHP-1 (Homo sapiens, UniProt P29350); assay: rapid in vitro SHP-1 PTPase assay (DIFMUP substrate); assay type: biochemical; settings: 1 μg/well; FIG. 12A
# T1 construct: Recombinant protein of SHP-1 PTPase catalytic domain was described
# T1 sequence (P29350 244-515 limits assumed): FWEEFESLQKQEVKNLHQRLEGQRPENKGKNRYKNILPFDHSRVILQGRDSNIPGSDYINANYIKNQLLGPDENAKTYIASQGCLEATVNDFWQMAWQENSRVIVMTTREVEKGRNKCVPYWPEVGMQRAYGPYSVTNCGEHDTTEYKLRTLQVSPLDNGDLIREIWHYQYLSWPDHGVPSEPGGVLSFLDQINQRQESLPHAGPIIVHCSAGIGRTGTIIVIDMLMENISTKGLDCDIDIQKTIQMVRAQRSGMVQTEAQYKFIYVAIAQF
# Method: Recombinant protein of SHP-1 PTPase catalytic domain was described and stored in Tris buffer (25 mM Tris, pH7.5, 1 mM EDTA, 2 μM 2-ME, 25% glycerol) at −80° C. Fluorescence substrate DIFMUP (6,8-difluoro-4 methylumbelliferyl phosphate) was purchased (Molecular Probes). SSG was reported previously (21-23) and stored at 4° C. in darkness prior to use. Human and mouse IFNγ ELISPOT Kit (R & D System), CD4^+ Cell Intracellular IFNγ Detection Kit (BD Bioscience) and CD8^+ Cell Intracellular IFNγ Detection Kit (BD Bioscience) were purchased from commercial sources. Human Jurkat T cell line (26) and murine B16 melanoma cell line (ATCC) were maintained in […] culture medium supplemented with 10% fetal calf serum (FCS). Antibodies against pLck-pY394 (Cell Signaling), pLck-pY505 (Cell Signaling), pZap70 (pY319, BD Biosciences), pSlp76 (pY128, BD Biosciences) and pLat (pY226, BD Biosciences) were purchased from commercial sources.
# (§2) A rapid SHP-1 PTPase assay was developed for screening the compounds in a commercial library of 34,000 drug-like small chemicals (Chembridge, Mass.). Briefly, compounds of the library (1 μg/well in 0.21 DMSO) were placed in 96-well plates (Falcon, 353072) and mixed with recombinant SHP-1 protein (0.1 μg/well) in 90 μl of HEPES buffer (50 mM HEPS, pH 7.5, 150 mM NaCl, 1 mM EDTA, 0.2 mM DTT and 0.1 mg/ml BSA). The plates were incubated at room temperature for 10 minutes prior to the addition of fluorescence substrate DIFMUP (40 μM stock in HEPES buffer, 10 μl/well) to initiate PTPase reaction. Upon completion of PTPase reaction at room temperature for 1 hr in darkness, fluorescence signal of individual wells were recorded using a Vector^2 Multilabel Counter (Vector, CA). They were compared to that of control SHP-1 PTPase reaction (˜10,000 units of fluorescence signal) in the absence of any compound (100%) for calculating relative SHP-1 inhibition induced by the compounds after subtracting the background signal (˜500 units of fluorescence signal) of the substrate.
# as §2, with “To evaluate their” for “A rapid”, “inhibitory activity,” for “PTPase assay was developed for screening”, “analogs” for “compounds in a commercial library of 34,000 drug-like small chemicals (Chembridge, Mass.). Briefly, compounds of the library”, “0.2 μl” for “0.21”, “aliquot individually to” for “placed in”, “(500” for “(˜500”
# [3] = system: B16 melanoma tumors; assay: B16 melanoma tumor growth in C57BL/6J mice; assay type: in vivo
# Method: Tumor volume (n=5) was measured during the study period and calculated using the formula for a prolate spheroid. Student's t test was used for assessing the significance of tumor volume differences among differential treatment groups. Mouse viability (daily) and body weights (weekly) were also recorded during the study period. Major internal organs of the mice were inspected visually upon their termination at the end of the experiment.
# To assess anti-tumor activity, C57BL/6J mice (˜8-week old, female, Taconic Farms, Germantown, N.Y.) were inoculated (s.c.) at the flanks with B16 melanoma cells (4×10^4 cells/site). […] Tumor volume (n=5) was measured during the study period and calculated using the formula for a prolate spheroid. Student's t test was used for assessing the significance of tumor volume differences among differential treatment groups. Mouse viability (daily) and body weights (weekly) were also recorded during the study period. Major internal organs of the mice were inspected visually upon their termination at the end of the experiment.
# [4] = system: IFNγ+ cells in mouse splenocytes; assay: induction of IFNγ+ cells in mouse splenocytes in vitro (ELISPOT); assay type: cell-based
# Method: The splenocytes were cultured in RPMI 1640 medium supplemented with 10% FCS in the absence or presence of designated agents for 16 hrs in flat-bottom 96-well plates coated with a monoclonal antibody specific for mouse IFNγ (mouse IFNγ ELISPOT Kit, R & D System). The plates were then processed for in situ detection of IFNγ+ cells by ELISA following the manufacturer's procedure. Scanning and counting of IFNγ+ cells in the plates were accomplished using an automatic ELISPOT reader with Immunospot2 software (Cellular Technology Ltd). Mouse splenocytes were also untreated or treated with agents for 16 hrs in culture dishes and then stained with appropriate isotype control antibodies or FICT-labeled anti-CD3 monoclonal antibody (BD) plus PE-labeled monoclonal antibody (BD) for intracellular IFNγ following established procedures. The stained samples were washed 3 times, re-suspended in 200 μl of 1% para-formaldehyde solution and analyzed (20,000 cells/sample) using a BD FACS Caliburs cytometer and WinList software.
# The splenocytes were cultured in RPMI 1640 medium supplemented with 10% FCS in the absence or presence of designated agents for 16 hrs in flat-bottom 96-well plates coated with a monoclonal antibody specific for mouse IFNγ (mouse IFNγ ELISPOT Kit, R & D System). The plates were then processed for in situ detection of IFNγ+ cells by ELISA following the manufacturer's procedure. Scanning and counting of IFNγ+ cells in the plates were accomplished using an automatic ELISPOT reader with Immunospot2 software (Cellular Technology Ltd).
# [5] = system: B16 melanoma cells; assay: B16 melanoma cell growth in culture (MTT assay); assay type: cell-based, mouse; settings: 6 days (FIG. 13C)
# Excerpt: L5, L6 and L6 analogs (Chembridge), mouse IFNγ ELISPOT Kit (R & D System) and antibody against pLck-pY394 or pERK1/2 (Cell Signaling) were purchased from commercial sources. Human Jurkat T cell line and murine B16 melanoma cell line (ATCC) and other cancer cell lines were maintained in […] culture medium supplemented with 10% fetal calf serum (FCS). The effects of chemical compounds on cancer cell growth in culture were quantified by MTT assays following our established procedures.
# [6] = system: CD3+ and CD3− IFNγ+ splenocytes; assay: spleno-IFNγ+ T cells in B16 tumor mice (flow cytometry); assay type: in vivo, mouse; settings: 1 mg/kg oral, day 22
# Method: Splenocytes from mice untreated or treated with L5a2 were stained with appropriate isotype control antibodies or FICT-labeled anti-CD3 monoclonal antibody (BD) plus PE-labeled monoclonal antibody (BD) for intracellular IFNγ following established procedures. The stained samples were washed 3 times, re-suspended in 200 μl of 1% para-formaldehyde solution and analyzed (20,000 cells/sample) using a BD FACS Caliburs cytometer and FlowJoe software.
# To gain further insights into the mechanism of action in L5a2 in vivo, spleens were harvested from the B16 tumor mice in the control and the L5a2-treated groups (FIG. 13A) on day 22 to assess whether L5a2 induced IFNγ+ cells in the tumor-bearing mice. It was also determined whether the induced-IFNγ+ cells were of CD3+ T lymphocytes, which were activated TH1 critical for anti-tumor immunity. Splenocytes were prepared and co-stained for intracellular IFNγ and the T cell surface marker CD3 for quantification of IFNγ+T cells by flow cytometry.
# [7] = system: MKPs; assay: induction of MKPs substrates in Jurkat cells (Western blotting); assay type: cell-based, human
# Method: FIG. 22 illustrates selective induction of MKPs substrates by L6 and analogs in Jurkat human leukemic cells. Jurkat cells were treated with the compounds for 30 min in culture prior to quantification of MKPs substrates by SDS-PAGE/Western blotting.
# [8] = system: Jurkat cells; assay: Jurkat cell apoptosis (Annexin V / 7-AAD, FACS); assay type: cell-based, human; settings: 16 hrs (FIG. 23)
# Method: FIG. 23 illustrates jurkat cells were treated with L6 and analogs in culture for 16 hrs. Cells were then stained for apoptotic marker Annexin V and cell death marker 7-AAD prior to FACS analysis.
# [9] = system: HT-29 human colon cancer cells; assay: cytotoxicity of 5FU against HT-29 cells with L6 or analogs (MTT assay); assay type: cell-based; settings: 5FU 2 μm, 3 days, then 4 days culture (FIG. 24)
# Method: FIG. 24 illustrates HT-29 cells were treated with L6 or the analogs in the absence or presence of 5FU (2 μm) for 3 days. After washing, the cells were cultured for 4 days prior to quantification of viable cells by MTT assays.
# [10] = system: SHP-1 and SHP-2; assay: SSG inhibition of recombinant and intracellular SHPs (applicant's earlier studies); settings: clinically achievable levels
smiles,measurement,setting,value
O=C1C=CC(=O)C(c2ccc(Cl)cc2Cl)=C1 [L5a1],effectiveness in inducing pLck-pY394 relative to L5,"[1]; Jurkat cells, 10 min (FIG. 10)",~50%
same,inhibition of phosphatase activity of recombinant SHP-1,[2],completely or almost completely inhibited
O=C1C=CC(=O)C(c2cccc(Cl)c2)=C1 [L5a2],growth inhibition of B16 tumors vs control,"[3]; 1 mg/kg body weight daily, Monday-Friday/week, oral gavage",~75%
same,survival of treated mice,"[3]; 1 mg/kg daily, oral gavage",survived till the end of the study
same,immune cell activation (increase),[4]; FIG. 11,~20 fold
same,inhibition of phosphatase activity of recombinant SHP-1,[2],completely or almost completely inhibited
same,inhibition of B16 melanoma cells in culture,[5],failed to inhibit B16 melanoma cells in culture
same,increase of CD3+ IFNγ+ cells,[6],~4.5 fold
same,increase of CD3− IFNγ+ cells,[6],1.3 fold
O=C1C=C(c2ccccc2)C(=O)c2ccccc21 [L5a3],inhibition of phosphatase activity of recombinant SHP-1,[2],~80%
CCOc1ccc(C2=CC(=O)C=CC2=O)cc1 [L5a4],inhibition of phosphatase activity of recombinant SHP-1,[2],completely or almost completely inhibited
COc1ccc(C2=CC(=O)C=CC2=O)cc1 [L5a5],inhibition of phosphatase activity of recombinant SHP-1,[2],completely or almost completely inhibited
O=C1C=C(c2ccccc2Cl)CC(=O)C1 [L5a10],inhibition of B16 melanoma tumors in mice,[3]; preliminary experiment,failed to inhibit B16 melanoma tumors
same,induction of spleno-IFNγ+ cells (average),[4]; doses from 1-30 μg/ml,~2 folds
same,effect on pLck-pY394 levels,"[1]; Jurkat cells, 10 min (FIG. 10)",failed to induce pLck-pY394
same,inhibition of phosphatase activity of recombinant SHP-1,[2],~5%
O=c1cc(Cl)sn1Cc1ccccc1 [L6a1],MKP predominantly targeted (as indicated by effects on the substrates),[7],inhibited HVH3
same,"differential effects on MKP substrates (pERK1/2, p38, pJNK)","[7]; 30 min (FIG. 22), L6 at 1-100 ng/ml",lack of activity to induce pJNK or p-p39
same,Jurkat cell apoptosis,[8],failed to induce apoptosis
same,augmentation of 5FU cytotoxicity against HT-29 cells,[9],not
"O.O.O.O.O.O.O.O.O.O=C([O-])[C@@H]1[O][Sb]2([O-])([O][Sb]34([OH])[O][C@H]([C@H](O)CO)[C@H]([O]3)[C@H](C(=O)[O-])[O]4)[O][C@H]([C@H](O)CO)[C@@H]1[O]2.[Na+].[Na+].[Na+] [SSG, Sodium Stibogluconate, reference compound]",pLck-pY394 induction,[1]; lower (1 μg/ml) or higher (100 μg/ml) doses,failed
same,level at which recombinant and intracellular SHP-1 and SHP-2 are inhibited,[10],10 µg/mL

# — patent US20080051464A1, “Protein phosphatase inhibitors” (The Cleveland Clinic Foundation, priority 2006, published 2008)
